# Target: Vitamin K-dependent protein C (Homo sapiens, UniProt P04070)
# Assay: Inhibitory constant (Ki) was determined against human Activated protein C
# Vitamin K-dependent protein C, sequence (P04070 43-197 limits assumed): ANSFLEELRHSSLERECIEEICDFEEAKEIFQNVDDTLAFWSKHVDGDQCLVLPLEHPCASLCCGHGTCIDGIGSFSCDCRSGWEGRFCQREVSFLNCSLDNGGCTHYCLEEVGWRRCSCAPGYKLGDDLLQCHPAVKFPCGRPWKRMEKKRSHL
# Vitamin K-dependent protein C, sequence (P04070 212-461 limits assumed): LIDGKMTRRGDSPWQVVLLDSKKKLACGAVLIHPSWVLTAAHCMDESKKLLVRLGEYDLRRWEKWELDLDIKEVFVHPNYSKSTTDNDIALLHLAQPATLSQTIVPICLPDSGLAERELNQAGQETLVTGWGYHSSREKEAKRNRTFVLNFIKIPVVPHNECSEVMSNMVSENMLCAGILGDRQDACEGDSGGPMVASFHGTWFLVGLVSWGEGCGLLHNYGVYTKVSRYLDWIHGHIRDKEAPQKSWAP
row,SMILES,Ki [nM]
1,Cn1c(CNc2ccc(C(=N)N)cc2)nc2cc(C(=O)N(CCC(=O)O)c3ccccn3)ccc21 [DABIGATRAN],20900

# Species on record: Homo sapiens
# Assay: Effective dose was determined against human plasma using PTT reagent
# Format: functional
row,SMILES,ED2 [µM]
1,Cn1c(CNc2ccc(C(=N)N)cc2)nc2cc(C(=O)N(CCC(=O)O)c3ccccn3)ccc21 [DABIGATRAN],0.23

# Target: Prothrombin (Homo sapiens, UniProt P00734)
# Assay: Inhibition of human thrombin by chromogenic assay
row,SMILES,IC50 [nM]
1,Cn1c(Cc2ccc(C(=N)N)cc2)nc2cc(NS(=O)(=O)c3cc(C(F)(F)F)cc(C(F)(F)F)c3)ccc21,> 100000
2,Cn1c(Cc2ccc(C(=N)N)cc2)nc2cc(NS(=O)(=O)c3cccnc3)ccc21,1600
3,Cn1c(Cc2ccc(C(=N)N)cc2)nc2cc(NS(=O)(=O)c3ccc4ccccc4c3)ccc21,24000
4,Cn1c(Cc2ccc(C(=N)N)cc2)nc2cc(NS(=O)(=O)c3cccc4cccnc34)ccc21,260
5,Cn1c(Cc2ccc(C(=N)N)cc2)nc2cc(NS(=O)(=O)c3cccc4cnccc34)ccc21,510
6,CN(c1ccc2c(c1)nc(Cc1ccc(C(=N)N)cc1)n2C)S(=O)(=O)c1ccccc1,1300
7,COc1ccc(OC)c(S(=O)(=O)Nc2ccc3c(c2)nc(Cc2ccc(C(=N)N)cc2)n3C)c1,1800
8,Cn1c(COc2ccc(C(=N)N)cc2)nc2cc(C(=O)N(CC(=O)O)c3ccccc3)ccc21,330
9,Cn1c(Cc2ccc(C(=N)N)cc2)nc2cc(NS(=O)(=O)c3cccc4ccccc34)ccc21,600
10,Cn1c(CNc2ccc(C(=N)N)cc2)nc2cc(N(CC(=O)O)S(=O)(=O)c3cccc4cccnc34)ccc21,11
11,Cn1c(Cc2ccc(C(=N)N)cc2)nc2cc(N(CCCC(=O)O)S(=O)(=O)c3cccc4cccnc34)ccc21,130
12,CCn1c(Cc2ccc(C(=N)N)cc2)nc2cc(NS(=O)(=O)c3ccccc3)ccc21,2400
13,N=C(N)c1ccc(Cc2nc3cc(NS(=O)(=O)c4ccccc4)ccc3[nH]2)cc1,19000
14,CCCn1c(Cc2ccc(C(=N)N)cc2)nc2cc(NS(=O)(=O)c3ccccc3)ccc21,4000

# Next, values leading:
row,IC50 [nM],SMILES
1,120,Cn1c(Cc2ccc(C(=N)N)cc2)nc2cc(N(CC(=O)O)S(=O)(=O)c3cccc4cccnc34)ccc21
2,58,Cn1c(COc2ccc(C(=N)N)cc2)nc2cc(N(CC(=O)O)S(=O)(=O)c3cccc4cccnc34)ccc21
3,54,Cn1c(CCc2ccc(C(=N)N)cc2)nc2cc(C(=O)N(CC(=O)O)c3ccccc3)ccc21
4,32,Cn1c(CCc2ccc(C(=N)N)cc2)nc2cc(N(CC(=O)O)S(=O)(=O)c3cccc4cccnc34)ccc21
5,10,Cn1c(CNc2ccc(C(=N)N)cc2)nc2cc(C(=O)N(CC(=O)O)c3ccccc3)ccc21
6,10,Cn1c(CNc2ccc(C(=N)N)cc2)nc2cc(C(=O)N(CCCC(=O)O)c3ccccc3)ccc21
7,5.4,Cn1c(CNc2ccc(C(=N)N)cc2)nc2cc(C(=O)N(CCC(=O)O)c3ccccc3)ccc21

# Target: Plasminogen (Homo sapiens, UniProt P00747)
# Sequence (P00747 97-580 limits assumed): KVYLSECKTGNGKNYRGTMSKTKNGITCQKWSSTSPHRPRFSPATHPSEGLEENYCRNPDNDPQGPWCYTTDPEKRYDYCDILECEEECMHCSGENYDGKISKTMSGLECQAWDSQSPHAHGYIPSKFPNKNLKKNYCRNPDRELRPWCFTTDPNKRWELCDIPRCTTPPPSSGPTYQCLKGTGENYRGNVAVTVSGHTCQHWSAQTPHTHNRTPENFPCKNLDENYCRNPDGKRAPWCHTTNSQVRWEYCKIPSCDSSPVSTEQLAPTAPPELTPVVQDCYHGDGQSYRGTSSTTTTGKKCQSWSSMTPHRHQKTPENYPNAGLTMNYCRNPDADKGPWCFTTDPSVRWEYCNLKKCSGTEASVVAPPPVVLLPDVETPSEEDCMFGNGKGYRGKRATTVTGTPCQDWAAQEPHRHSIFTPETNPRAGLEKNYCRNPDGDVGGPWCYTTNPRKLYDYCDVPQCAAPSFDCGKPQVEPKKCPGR
# Sequence (P00747 581-810 limits assumed): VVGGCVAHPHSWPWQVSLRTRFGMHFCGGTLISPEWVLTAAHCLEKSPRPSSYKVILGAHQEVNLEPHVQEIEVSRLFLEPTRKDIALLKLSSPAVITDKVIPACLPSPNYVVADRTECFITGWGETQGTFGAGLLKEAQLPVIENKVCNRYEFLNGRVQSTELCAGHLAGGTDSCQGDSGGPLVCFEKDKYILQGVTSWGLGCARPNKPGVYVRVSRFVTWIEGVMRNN
# Assay: Inhibitory constant (Ki) was determined against human plasmin
row,SMILES,Ki [nM]
1,Cn1c(CNc2ccc(C(=N)N)cc2)nc2cc(C(=O)N(CCC(=O)O)c3ccccn3)ccc21 [DABIGATRAN],1690

# Target: Trypsin (Homo sapiens, UniProt P07477+P07478+P35030)
# Assay: Inhibitory constant (Ki) was determined against human trypsin
# Format: protein assay
row,SMILES,Ki [nM]
1,Cn1c(CNc2ccc(C(=N)N)cc2)nc2cc(C(=O)N(CCC(=O)O)c3ccccn3)ccc21 [DABIGATRAN],50.3

# Target: Tissue-type plasminogen activator (Homo sapiens, UniProt P00750)
# Sequence (P00750 whole entry): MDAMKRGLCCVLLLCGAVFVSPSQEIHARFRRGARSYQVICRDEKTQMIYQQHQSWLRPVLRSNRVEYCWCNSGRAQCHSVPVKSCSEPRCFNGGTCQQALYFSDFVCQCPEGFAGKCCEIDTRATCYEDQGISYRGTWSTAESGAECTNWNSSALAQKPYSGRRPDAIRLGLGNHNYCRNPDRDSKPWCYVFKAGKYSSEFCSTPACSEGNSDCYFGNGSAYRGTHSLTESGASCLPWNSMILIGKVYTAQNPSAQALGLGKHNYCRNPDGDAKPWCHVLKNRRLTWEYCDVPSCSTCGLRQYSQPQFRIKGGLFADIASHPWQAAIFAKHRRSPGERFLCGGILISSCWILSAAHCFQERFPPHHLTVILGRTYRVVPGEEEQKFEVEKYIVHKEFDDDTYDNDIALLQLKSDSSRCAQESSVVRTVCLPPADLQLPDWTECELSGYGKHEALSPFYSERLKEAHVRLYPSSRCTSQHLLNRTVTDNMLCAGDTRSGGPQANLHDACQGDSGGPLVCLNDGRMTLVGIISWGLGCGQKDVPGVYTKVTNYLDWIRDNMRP
# Assay: Inhibitory constant (Ki) was determined against human Tissue plasminogen activator (tissue plasminogen activator)
row,SMILES,Ki [nM]
1,Cn1c(CNc2ccc(C(=N)N)cc2)nc2cc(C(=O)N(CCC(=O)O)c3ccccn3)ccc21 [DABIGATRAN],45400
